# Tests used:
# [1] = system: Th17 cells; assay: Endothelial transmigration of CD4 T-cell subsets (Th17, Th1, Treg), Boyden chamber; type: cell-based, human; conditions: indicated concentrations of peptide, Boyden Chamber assay
# Experimental: Animal experiments were subject to ethical review by the University of Nottingham were appropriate and conducted using PPL 40/3412 in accordance with the UK Home Office guidance and under ASPA (1986). For the generation of murine T-cell subsets, spleens were removed from C57Bl/6 mice and single cell suspensions prepared. CD4^+CD62L^+ naïve cells were isolated using Miltenyi Biotec microbeads. Naïve human CD4^+ T-cells were prepared using the Miltenyi Biotec naïve CD4^+ T-cell isolation kit II, which are sorted produced a 99% pure population of CD4^+CD45RA^+ cells. Purified cells were cultured in complete IMDM media all with α-CD3 (1 μg/ml), α-CD28 (2 μg/ml), and as follows; Th1 cells IL-12 (10 ng/ml) with α-IL-4 (10 μg/ml), Th2 cells IL-4 (10 ng/ml) and α-IFN-γ (10 μg/ml), Th17 cells Il-6 (10 ng/ml), TGF-β1 (2 ng/ml), α-IFN-γ (10 μg/ml) with α-IL-4 (10 μg/ml), and Tregs IL-2 (10 ng/ml) TGF-β1 (5 ng/ml), α-IFN-γ (10 μg/ml) and α-IL-4 (10 μg/ml). Cells were converted to T-cell subsets over five days as outlined above. All cytokines were supplied by PeproTech (London, UK). Mouse CD3 (clone 2C11); human CD3 (UCHT1); mouse CD28 (37.51); human CD28 (CD28.2); mouse IL-4 (11B11); human IL-4 (MP4-25D2); mouse IFN-γ (XMG1.2); human IFN-γ B27 came from BD Pharmigen.
# After hydration of the Boyden chamber membranes containing 3 μm pore size membranes (Millipore, Molsheim, France), activated T-lymphocytes (10^6) were added to the top chamber on a confluent monolayer of HUVEC in a low serum (1%)-containing medium. […] In experiments using human sera, 500 μl of serum from either healthy donors or SLE patients was added in the lower reservoir. Cells were cultured for 24 h at 37° C. in a 5% CO2 humidified incubator. Transmigrated cells were counted in the lower reservoir by flow cytometry using a standard of 2.5×10^4 fluorescent beads (Flow-count, Beckman Coulter).
# Blocking antibodies were used against E-selectin and ICAM-1 in the CHEMICON® endothelial cell adhesion assay (Millipore). Briefly, after activation of the endothelial cell layer with TNF-α, anti-mouse Ig controls, anti-E-selectin or anti-ICAM-1 were added at final concentrations of 10 μg/ml. Thereafter calcein-AM-stained T-cell subsets were incubated for 24 hours and unbound cells are washed. Cells attached to the endothelium were assessed using fluorescence plate reader.
# [2] = system: Akt serine 473 (PI3K signaling pathway); assay: Akt phosphorylation in PBLs exposed to cl-CD95L; type: cell-based, human; conditions: peptide pre-incubation
# Experimental: Cells were lyzed for 30 minutes at 4° C. in lysis buffer (25 mM HEPES pH 7.4, 1% v/v Triton X-100, 150 mM NaCl, 2 mM EGTA supplemented with a mix of protease inhibitors (Sigma-Aldrich)). Protein concentration was determined by the bicinchoninic acid method (PIERCE, Rockford, Ill., USA) according to the manufacturer's protocol. Proteins were separated on a 12% SDS-PAGE and transferred to a nitrocellulose membrane (GE Healthcare, Buckinghamshire, England). The membrane was blocked 15 minutes with TBST (50 mM Tris, 160 mM NaCl, 0.05% v/v Tween 20, pH 7.8) containing 5% w/v dried skimmed milk (TBSTM). Primary antibody was incubated overnight at 4° C. in TBSTM. The membrane was intensively washed (TBST) and then the peroxydase-labeled anti-rabbit or anti-mouse (SouthernBiotech, Birmingham, Ala., US) was added for 45 minutes. The proteins were visualized with the enhanced chemiluminescence substrate kit (ECL, GE Healthcare).
# [3] = system: murin CD95; assay: Calcium response in mouse CD95-expressing CEM-IRC cells; type: cell-based; conditions: CEM-IRC cells reconstituted with wild type mouse CD95
# [4] = system: Th17 cell accumulation; assay: In vivo administration of cl-CD95L: cell accumulation in peritoneal cavity and spleen; parameters: species or system C57BL/6 mice; conditions: 24 hours later
# Experimental: Female C57BL/6 mice (Harlan UK) aged between 8-10 weeks were placed in groups of 6 and administered IP. Twenty-four hours following injection, mice were sacrificed and periteonial cavities were washed with 5 ml of PBS/2% FCS, blood smears were prepared, and spleens were collected. Blood smears and cytospins of periteonal cells (PECs) were stained with Giemsa and differential counts performed. Single cell suspensions of spleens and PECs were prepared, cell counts performed, CD4+CD62− T-cells were isolated with Miltenyi microbeads and number of cells determined by trypan blue exclusion. For experiments where animals received TAT-mCID or control peptides, 800 μg (40 mg/kg) was injected IP 2 hrs prior to administration of cl-CD95L. All mouse experiments were performed under ethical approval from the University of Nottingham local animal ethics committee and adhering to UK Home Office guidelines under the Project License 40/3412.
# Single cell suspensions of spleens and PECs were prepared as described above. RNA was extracted from CD4 T-cells using phenol/chloroform. cDNA was prepared using the Promega GO-Script Reverse Transcription Kit and used in Real-Time PCR. Briefly, cDNA samples were subject to Taqman assay performed on a Roche Lightcycler. Results are reported as expression levels were calculated using the Δct method relative to HPRT.
substance,measurement,setting,value
TAT-CID: cell penetrating peptide linking the 36-amino acid-stretch of CID (CD95 residues 175 to 210) to the HIV-TAT sequence; SEQ ID NO: 6 (RKKRRQRRRKRKEVQKTCRKHRKENQGSHESPTLNPETVAINLSD; TAT-CID),CD95-mediated endothelial transmigration of Th17 cells,[1],inhibited the CD95-mediated endothelial transmigration of human Th17 cells in a dose-dependent manner
same,Akt phosphorylation at serine 473,[2],inhibited Akt phosphorylation at its serine 473
same,CD95-mediated Ca^2+ response,[3],failed to inhibit the CD95-mediated Ca^2+ response
same,total cell counts from the PEC (accumulation of T lymphocytes),[4]; 40 mg/kg two hours prior to IP cl-CD95L (200 ng),abolished the CD95-mediated accumulation of T lymphocytes
same,IL17 production in the peritoneal cavity,"[4]; 40 mg/kg two hours prior to IP cl-CD95L (200 ng), ELISA",prevented
same,levels of IFN-γ versus control peptide,[4]; 40 mg/kg two hours prior to IP cl-CD95L,no differences were noted
